The results in this text go back to PubChem BioAssay (NCI).

Test in all cases: NCI-60 cell line screen, 48 h
Test [1] has as its system SF-268 CNS.
The test system of test [2] is HOP-62 NSCLC.
Test [3] concerns TK-10 renal.
Test [4] concerns SN12C renal.
The subject of test [5] is UO-31 renal.
Test [6] has as its system NCI-H522 lung.
The subject of test [7] is BT-549 breast.
The test system of test [8] is DU-145 prostate.
The test system of test [9] is MOLT-4 leukemia.
Test [10] deals with 786-0 renal.
The test system of test [11] is NCI-H23 lung.
Test [12] has as its system SK-MEL-2 melanoma.

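Protocol summary: plate cells (96-well), add compound at 5 concentrations, incubate 48 h, interpolate endpoints linearly. The concentration for full growth arrest is given as TGI.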 Some results are limits rather than exact numbers.

Consider `O=S(=O)(c1cc(Cl)ccc1Cl)N1CCN(c2cccc(Cl)c2)CC1`, for which the TGI in [1], in test [2], in [3], in [4], in test [5] and in test [6] was over 100 µM in each case. In addition, the TGI in test [7], in test [8], in test [9], in [10] and in test [11] was over 100 µM in each case.

As for `CC(C(=O)n1ccnc1)N1c2ccccc2Sc2ccccc21` (configuration not stated), the TGI in test [1], in [2], in [3], in test [4], in test [5] and in test [12] was over 100 µM each time. Besides, the TGI in [7], in [8], in test [9], in test [10] and in test [11] was over 100 µM throughout.

Consider `CS(=O)(=O)O[C@H]1[C@H](O)c2ccccc2[C@@H]1N=[N+]=[N-]`, for which the TGI in test [2], in test [4], in test [5], in [12], in test [6] and in [7] was over 100 µM throughout. Further, the TGI in test [8], in [9], in test [10] and in test [11] was over 100 µM each time.

`CC(=O)Nc1cc2nc3n(c2cc1C)CCC3OC(C)=O` (configuration not stated): the TGI in [1], in test [4], in test [5], in [12], in [6] and in test [7] was over 100 µM each time. For the same compound, the TGI in test [8], in test [9], in test [10] and in test [11] was over 100 µM each time.

For the compound `COc1cc(C2OC[C@@H]3C(=O)OC[C@H]23)cc(O)c1OC` (some centres not stated), the TGI in test [1], in [3], in [4], in test [5], in test [12] and in test [6] was over 100 µM in each case. Besides, the TGI in test [7], in test [8], in test [9], in [10] and in test [11] was over 100 µM throughout.

Consider `COC(=O)[C@]12CSC[C@H]1C[C@H](c1cccc3ccccc13)N2`, for which the TGI in test [2], in [4], in test [5], in [12], in test [7] and in test [8] was over 100 µM in each case. The results for the TGI in [9], in test [10] and in test [11] were 61.4 µM, over 100 µM and over 100 µM, respectively.

Consider `CN(C)CC1CCC/C(=C\c2ccccc2)C1=O` (configuration not stated), for which the TGI in test [1] was determined as 7.44 µM; in test [2] it was 34.2 µM; in test [3] it was 7.85 µM; in [4], 18.5 µM; in test [5], 5.08 µM; in test [12] it was 18.9 µM. Moreover, the TGI was 2.95 µM in [6]; 23.1 µM in test [7]; 28.6 µM in test [8]; over 100 µM in test [9]; 6.9 µM in test [10]; 22.8 µM in [11].

Regarding `S=C1CC(c2ccccc2)Sc2cc(Cl)ccc2N1` (configuration not stated), the TGI in [1] was 24.7 µM; in test [2] it was 18.4 µM; in test [3], 38.9 µM; in test [4] it was over 100 µM; in test [5], over 100 µM; in test [6], 16.9 µM. For the same compound, the TGI is over 100 µM in test [7]; over 100 µM in test [8]; 28.2 µM in test [9]; 17.7 µM in test [10]; 22.2 µM in test [11].

For `Cc1cc(S(=O)(=O)NC(=NCCc2ccccc2)NN)c(S)cc1Cl`, the TGI in test [1] is 79.7 µM; in test [3], over 100 µM; in test [4], over 100 µM; in test [5], 56.9 µM; in [12], over 100 µM; in test [6], over 100 µM. Also, the TGI in [7] is 66.2 µM; in [8], 34.6 µM; in test [9], 63.9 µM; in test [10], over 100 µM.

Regarding `Cc1ccc(C(=O)N/N=C(\N=Nc2ccccc2Cl)c2ccc(N(C)C)cc2)cc1`, the TGI in [1], in test [3], in [4], in [5], in [12] and in [6] was over 100 µM throughout. The TGI in test [7] was 97.1 µM; in test [8] it was 70.6 µM; in [9] it was over 100 µM; in test [10], over 100 µM; in test [11], over 100 µM.

On to `O=C(CN=C(CN(c1ccccc1)c1ccccc1)Oc1ccc(Cl)cc1Cl)n1ccnc1`, for which the TGI in [1], in test [2], in test [3], in test [4], in test [5] and in [12] was over 100 µM in each case. Further, the TGI in [7], in [8], in test [9], in test [10] and in test [11] was over 100 µM throughout.

Regarding `CCCCC1(O)CC2CC1C(C)C2(C)C` (configuration not stated), the TGI in [1], in test [2], in test [3], in test [4], in test [5] and in test [7] was over 100 µM throughout. In addition, the TGI in test [8], in test [9], in [10] and in [11] was over 100 µM in each case.
